Here are results for 14 compounds from patent publication US8609660B2, “4,7-dihydro-pyrazolo[1,5-a]pyrazin-6-ylamine derivatives useful as inhibitors of beta-secretase (BACE)” (Janssen Pharmaceutica NV, priority 2010, dated 2013).

In data set [1] the test system is Aβtotal produced and secreted into the medium of human neuroblastoma SKNBE2 cells. In words: Cellular αlisa assay in SKNBE2 cells, Aβtotal. The class given is cell-based. The note with it: SKNBE2 cells expressing hAPP695, 18 hours incubation; for IC50: Homo sapiens, SKNBE2, 18 h, read-out: Cellular αlisa assay in SKNBE2 cells Aβtotal pIC50 (converted). As for the experimental part: (§1) Cellular αlisa Assay in SKNBE2 Cells In two αlisa assays the levels of Aβtotal and Aβ42 produced and secreted into the medium of human neuroblastoma SKNBE2 cells are quantified. The assay is based on the human neuroblastoma SKNBE2 expressing the wild type Amyloid Precursor Protein (hAPP695). […] Aβtotal and Aβ42 are measured by sandwich α[…] sandwich assay using biotinylated antibody AbN/25 attached to streptavidin coated beads and antibody Ab4G8 or cAb42/26 conjugated acceptor beads for the detection of Aβtotal and Aβ42 respectively. In the presence of Aβtotal or Aβ42, the beads come into close proximity. The excitation of the Donor beads provokes the release of singlet oxygen molecules that triggers a cascade of energy transfer in the Acceptor beads, resulting in light emission. Light emission is measured after 1 hour incubation (excitation at […] and emission at 615 nm). A best-fit curve is fitted by a minimum sum of squares method to the plot of % Controlmin versus compound concentration. […] [formula]

Data set [2] relates to Aβ42 produced and secreted into the medium of human neuroblastoma SKNBE2 cells. In words: Cellular αlisa assay in SKNBE2 cells, Aβ42. The note with it: SKNBE2 cells expressing hAPP695, 18 hours incubation; for IC50: Homo sapiens, SKNBE2, 18 h, read-out: Cellular αlisa assay in SKNBE2 cells Aβ42 pIC50 (converted). The class given is cell-based. As for the experimental part:
as §1

Data set [3] has as its target T1, recombinant BACE1 protein (Homo sapiens, UniProt P56817).
T1 construct: recombinant BACE1 protein in a final concentration of 1 μg/ml
In words: Biochemical FRET based assay. The note with it: recombinant BACE1 1 μg/ml, 120 min, room temperature, pH 5.0; for IC50: read-out: Biochemical FRET based assay pIC50 (converted). An excerpt: Biochemical FRET Based Assay This assay is a Fluorescence Resonance Energy Transfer Assay (FRET) based assay. The substrate for this assay is an APP derived 13 amino acids peptide that contains the 'Swedish' […] mutation of the amyloid precursor protein (APP) β-secretase cleavage site. […] Upon cleavage by BACE1, the fluorophore Mca is separated from the quenching group Dnp, restoring the full fluorescence yield of the donor. The increase in fluorescence is linearly related to the rate of proteolysis (Koike H et al. J Biochem. 1999, 126, 235-42). Briefly in a 384-well format recombinant BACE1 protein in a final concentration of 1 μg/ml is incubated for 120 minutes at room temperature with 10 μm substrate in incubation buffer (40 mM Citrate buffer pH 5.0, 0.04% PEG, 4% DMSO) in the absence or presence of compound. Next the amount of proteolysis is directly measured by fluorescence measurement at T=0 and T=120 (excitation at 320 nm and emission at 405 nm). […] [formula]

Data set [4] concerns brain levels of total Aβ. In words: In vivo efficacy: brain Aβtotal lowering (ELISA). Set-up: species or system mouse. The note with it: 30 mpk, sc, 4 h after administration. From the text: (§2) To determine whether acute administration of an Aβ42 peptide lowering agent would reduce Aβ peptide levels in vivo, non-transgenic rodents, e.g. mice or rats were used. Animals treated with the Aβ peptide lowering agent were examined and compared to those untreated or treated with vehicle and brain levels of soluble Aβ42 and total Aβ were quantitated by standard techniques, for example, using ELISA. Treatment periods varied from hours (h) to days and were adjusted based on the results of the Aβ42 lowering once a time course of onset of effect could be established.
(§3) A typical protocol for measuring Aβ42 lowering in vivo is shown but it is only one of many variations that could be used to optimize the levels of detectable Aβ. For example, Aβ peptide lowering compounds were formulated in 20% hydroxypropyl β cyclodextrin. The Aβ peptide lowering agents were administered as a single oral dose (p.o.) or a single subcutaneous dose (s.c.) to overnight fasted animals. After a certain time, usually 2 or 4 h (as indicated in Table 19), the animals were sacrificed and Aβ42 levels were analysed.
(§4) Blood was collected by decapitation and exsanguinations in EDTA-treated collection tubes. […] The left hemisphere was stored at −18° C. for quantitative analysis of test compound levels. […]
(§5) Mouse brains from non-transgenic animals were resuspended in 8 volumes of 0.4% DEA (diethylamine)/50 mM NaCl containing protease inhibitors (Roche-11873580001 or 04693159001) per gram of tissue, e.g. for 0.158 g brain, add 1.264 ml of 0.4% DEA. […] Nine parts of supernatant were neutralized with 1 part 0.5 M Tris-HCl pH 6.8 and used to quantify Aβtotal and Aβ42.
To quantify the amount of Aβtotal and Aβ42 in the soluble fraction of the brain homogenates, Enzyme-Linked-Immunosorbent-Assays were used. […] Following this incubation and subsequent wash steps the ELISA for Aβ42 quantification was finished by addition of Quanta Blu fluorogenic peroxidase substrate according to the manufacturer's instructions (Pierce Corp., Rockford, Ill.). A reading was performed after 10 to 15 min (excitation 320 nm/emission 420 nm). […]

Data set [5] deals with brain levels of soluble Aβ42. The experiment in a line: In vivo efficacy: brain Aβ42 lowering (ELISA). Set-up: species or system mouse. Particulars: 30 mpk, sc, 4 h after administration.
Description: as §2, §3, §4, §5
To quantify the amount of Aβtotal and Aβ42 in the soluble fraction of the brain homogenates, Enzyme-Linked-Immunosorbent-Assays were used. […] Following this incubation and subsequent wash steps the ELISA for Aβ42 quantification was finished by addition of Quanta Blu fluorogenic peroxidase substrate according to the manufacturer's instructions (Pierce Corp., Rockford, Ill.). A reading was performed after 10 to 15 min (excitation 320 nm/emission 420 nm).

T1 sequence (P56817 46-501): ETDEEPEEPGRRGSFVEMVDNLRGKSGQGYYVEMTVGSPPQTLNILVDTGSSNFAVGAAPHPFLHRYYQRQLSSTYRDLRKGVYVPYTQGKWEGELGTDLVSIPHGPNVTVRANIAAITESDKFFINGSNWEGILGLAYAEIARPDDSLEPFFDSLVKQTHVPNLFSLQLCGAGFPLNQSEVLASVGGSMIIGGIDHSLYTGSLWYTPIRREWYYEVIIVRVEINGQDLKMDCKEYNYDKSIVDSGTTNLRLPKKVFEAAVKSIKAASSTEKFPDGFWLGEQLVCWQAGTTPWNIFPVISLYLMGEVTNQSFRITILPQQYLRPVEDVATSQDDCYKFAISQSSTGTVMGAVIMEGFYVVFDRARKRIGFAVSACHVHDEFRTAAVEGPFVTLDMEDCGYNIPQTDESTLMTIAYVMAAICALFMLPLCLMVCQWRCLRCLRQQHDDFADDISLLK

For the compound `CC1(c2cc(-c3cncnc3)c(F)cc2F)N=C(N)Cn2nccc21` (racemic) [Compound 4, rac-4-(2,4-difluoro-5-pyrimidin-5-yl-phenyl)-4-methyl-4,7-dihydropyrazolo[1,5-a]pyrazin-6-amine], the melting point stood at 207 °C. The IC50 in data set [1] is 1050 nM. The IC50 in data set [2] was 1070 nM. Also, the IC50 in data set [3] is 8710 nM.

Regarding `COc1cncc(-c2cccc(C3(C)N=C(N)Cn4nc(C(F)(F)F)cc43)c2)c1` (racemic) [Compound 21, rac-4-[3-(5-methoxypyridin-3-yl)-phenyl]-4-methyl-2-(trifluoromethyl)-4,7-dihydropyrazolo[1,5-a]pyrazin-6-amine], the melting point turned out to be 89.3 °C.

For `CC1(c2cc(-c3cncc(Cl)c3)ccc2F)N=C(N)Cn2nc(C(F)(F)F)cc21` (racemic) [Compound 24, rac-4-[5-(5-chloropyridin-3-yl)-2-fluorophenyl]-4-methyl-2-(trifluoromethyl)-4,7-dihydropyrazolo[1,5-a]pyrazin-6-amine], the melting point was found to be 175.2 °C.

`CC1(c2cc(NC(=O)c3ncc(Cl)cc3Cl)ccc2F)N=C(N)Cn2nc(C(F)(F)F)cc21` (racemic) [Compound 27, rac-N-{3-[6-amino-4-methyl-2-(trifluoromethyl)-4,7-dihydropyrazolo[1,5-a]pyrazin-4-yl]-4-fluorophenyl}-3,5-dichloropyridine-2-carboxamide]: the melting point was 198 °C.

Consider `CC1(c2cc(NC(=O)c3ccc(Cl)cn3)ccc2F)N=C(N)Cn2nccc21` (single isomer, unassigned) [Compound 10, (S*)—N-[3-(6-Amino-4-methyl-4,7-dihydropyrazolo[1,5-a]pyrazin-4-yl)-4-fluorophenyl]-5-chloropyridine-2-carboxamide], for which the melting point turned out to be 199 °C. Also, the “Cellular αlisa assay in SKNBE2 cells Aβtotal pIC50” value in data set [1] stood at 5.44. Further, the “Cellular αlisa assay in SKNBE2 cells Aβ42 pIC50” value in data set [2] is 5.41. Moreover, in data set [3], the IC50 is over 30200 nM.

As for `CC1(c2cc(NC(=O)c3ccc(Cl)cn3)ccc2F)N=C(N)Cn2nccc21` (single isomer, unassigned) [Compound 11, (R*)—N-[3-(6-amino-4-methyl-4,7-dihydropyrazolo[1,5-a]pyrazin-4-yl)-4-fluorophenyl]-5-chloropyridine-2-carboxamide], the “Cellular αlisa assay in SKNBE2 cells Aβtotal pIC50” value in data set [1] stood at 8.37. Also, the “Aβtotal (% Ctrl)_Mean” value in data set [4] came out at 80 % Ctrl. For the same compound, the “Aβ42 (% Ctrl)_Mean” value in data set [5] was 71 % Ctrl. Moreover, in data set [2], the “Cellular αlisa assay in SKNBE2 cells Aβ42 pIC50” value is 8.36. Moreover, the IC50 in data set [3] is 42.7 nM.

Compound `COc1cccc(-c2cccc([C@@]3(C)N=C(N)Cn4nccc43)c2)c1` [Compound 7, (R)-4-(3′-methoxybiphenyl-3-yl)-4-methyl-4,7-dihydropyrazolo[1,5-a]pyrazin-6-amine] came in with a melting point of 153.8 °C.

As to `CC1(c2cccc(-c3cc(F)cc(F)c3)c2)N=C(N)Cn2nccc21` (stereo not drawn) [Compound 14], the “Cellular αlisa assay in SKNBE2 cells Aβtotal pIC50” value in data set [1] worked out at 6.11. In addition, in data set [2], the “Cellular αlisa assay in SKNBE2 cells Aβ42 pIC50” value was 6.09. Also, the “Biochemical FRET based assay pIC50” value in data set [3] is listed as 6.11.

`CC1(c2cccc(-c3cccc(OC(F)(F)F)c3)c2)N=C(N)Cn2nccc21` (stereo not drawn) [Compound 19]: the “Cellular αlisa assay in SKNBE2 cells Aβtotal pIC50” value in data set [1] worked out at 5.91. Moreover, the “Cellular αlisa assay in SKNBE2 cells Aβ42 pIC50” value in data set [2] is 5.81. Also, the “Biochemical FRET based assay pIC50” value in data set [3] is recorded as 5.77.

Regarding `COc1cncc(-c2cccc(C3(C)N=C(N)Cn4nc(C(F)(F)F)cc43)c2)c1` (stereo not drawn) [Compound 21, rac-4-[3-(5-methoxypyridin-3-yl)-phenyl]-4-methyl-2-(trifluoromethyl)-4,7-dihydropyrazolo[1,5-a]pyrazin-6-amine], the IC50 in data set [1] is 398 nM; in data set [2] it was 407 nM; in data set [3], 1070 nM.

For the compound `CC1(c2cc(-c3cncc(Cl)c3)ccc2F)N=C(N)Cn2nc(C(F)(F)F)cc21` (stereo not drawn) [Compound 24, rac-4-[5-(5-chloropyridin-3-yl)-2-fluorophenyl]-4-methyl-2-(trifluoromethyl)-4,7-dihydropyrazolo[1,5-a]pyrazin-6-amine], the IC50 is 5370 nM in data set [1], 5890 nM in data set [2] and 7240 nM in data set [3].

On to `CC1(c2cc(NC(=O)c3ncc(Cl)cc3Cl)ccc2F)N=C(N)Cn2nc(C(F)(F)F)cc21` (stereo not drawn) [Compound 27, rac-N-{3-[6-amino-4-methyl-2-(trifluoromethyl)-4,7-dihydropyrazolo[1,5-a]pyrazin-4-yl]-4-fluorophenyl}-3,5-dichloropyridine-2-carboxamide], for which the IC50 was 170 nM in data set [1], 170 nM in data set [2] and 145 nM in data set [3].

`NC1=N[C@@](c2cc(NC(=O)c3ncc(Cl)cc3F)ccc2F)(C2CC2)c2ccnn2C1` [Compound 33, (R)—N-{3-[6-amino-4-cyclopropyl-4,7-dihydropyrazolo[1,5-a]pyrazin-4-yl]-4-fluorophenyl}-5-chloro-3-fluoropyridine-2-carboxamide] showed a melting point of 272.6 °C. Besides, the IC50 in data set [1] is 20.9 nM. Further, the IC50 in data set [2] was 25.7 nM. Also, the IC50 in data set [3] was 309 nM.

Take `COc1cnc(C(=O)Nc2ccc(F)c(C3(C4CC4)N=C(N)Cn4nccc43)c2)cn1` (stereo not drawn) [Compound 34]: the “Cellular αlisa assay in SKNBE2 cells Aβtotal pIC50” value in data set [1] is listed as 7.19. In data set [2], the “Cellular αlisa assay in SKNBE2 cells Aβ42 pIC50” value was 7.11. Moreover, the “Biochemical FRET based assay pIC50” value in data set [3] turned out to be 6.51.
